Data reported in patent US11976083B2, “Inhibitors of peptidylarginine deiminases” (Gilead Sciences, Inc., priority 2020, dated 2024).

molecular target: T1, human PAD4 (Homo sapiens, UniProt Q9UM07); experiment: In vitro PAD4 BAEE biochemical assay; conditions: BAEE substrate 3 mM, 5 nM PAD4, 2 mM calcium chloride; geometric mean of multiple experiments
T1 construct: human PAD4 (NM_012387), A2-P663, was PCR amplified; His-SUMO (N, cleaved yes); made in house; host or cells: E. coli BL21(DE3)
How it was run: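 Assay was run at 25 °C using 3 mM BAEE and 5 nM human PAD4 after a 30 min compound preincubation; ammonia produced over 2 h was quantified by OPA-derived fluorescence. Full inhibition was defined by 50 µM BB-Cl-Amidine, and IC50 came from variable-slope nonlinear regression.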

T1 sequence (Q9UM07 2-663): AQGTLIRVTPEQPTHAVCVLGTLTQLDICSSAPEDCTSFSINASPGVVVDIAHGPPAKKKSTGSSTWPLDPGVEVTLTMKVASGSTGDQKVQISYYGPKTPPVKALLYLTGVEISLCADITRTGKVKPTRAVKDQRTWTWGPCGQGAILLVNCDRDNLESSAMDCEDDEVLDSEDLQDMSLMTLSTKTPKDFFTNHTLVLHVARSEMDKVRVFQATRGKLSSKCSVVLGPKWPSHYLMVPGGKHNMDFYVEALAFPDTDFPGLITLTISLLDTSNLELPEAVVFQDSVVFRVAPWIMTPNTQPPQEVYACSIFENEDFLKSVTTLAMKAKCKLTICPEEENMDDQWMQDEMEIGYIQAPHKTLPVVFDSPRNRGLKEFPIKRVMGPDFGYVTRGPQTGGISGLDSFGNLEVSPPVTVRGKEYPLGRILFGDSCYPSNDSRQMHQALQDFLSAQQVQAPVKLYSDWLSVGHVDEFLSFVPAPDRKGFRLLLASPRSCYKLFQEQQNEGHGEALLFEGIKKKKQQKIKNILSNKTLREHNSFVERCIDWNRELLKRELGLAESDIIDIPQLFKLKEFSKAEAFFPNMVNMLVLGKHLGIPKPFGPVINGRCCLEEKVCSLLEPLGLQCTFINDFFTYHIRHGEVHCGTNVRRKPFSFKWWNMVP

IC50 [nM]	Compound
32	C[C@H]1NC(=O)c2ccc(Cl)nc2CCCCCn2c(-c3nc4cc(C(=O)N[C@H]5CNCC[C@@H]5F)c(F)cc4n3C3CC3)cc3ccc1nc32 [Example 751, 2-[(2~{R})-8-chloro-2-methyl-4-oxo-3,9,16,22-tetrazatetracyclo[14.5.2.0^ {5,10}.0^{19,23}]tricosa-1(22),5(10),6,8,17,19(23),20-heptaen-17-yl]-1-cyclopropyl-6-fluoro-~{N}-[(3~{S}, 4~{S})-4-fluoro-3-piperidyl]benzimidazole-5-carboxamide]
850	COc1cc(C(=O)N2C[C@H]3C[C@H]3[C@@H](N)C2)cc2nc(-c3cc4ccc5nc4n3CCCCCCC(C)(C)C(=O)N[C@@H]5C)n(C)c12 [Example 206, (11~{R})-17-[5-[(1~{S},5~{R},6~{R})-5-amino-3-azabicyclo[4.1.0]heptane-3-carbonyl]-7-methoxy-1-methyl-benzimidazol-2-yl]-8,8,11-trimethyl-1,10,19-triazatricyclo[10.5.2.0^{15,18}]nonadeca-12(19),13,15(18),16-tetraen-9-one]
15	C[C@H]1NC(=O)c2ccc(Cl)nc2CCCCCn2c(-c3nc4cc(C(=O)N5[C@H]6CC[C@@H]5[C@H](N)C6)cc(F)c4n3C3CC3)cc3ccc1nc32 [Example 808, (2~{R})-17-[5-[(1~{R},2~{R},4~ {S})-2-amino-7-azabicyclo [2.2.1]heptane-7-carbonyl]-1-cyclopropyl-7-fluoro-benzimidazol-2-yl]-8-chloro-2-methyl-3,9,16,22-tetrazatetracyclo[14.5.2.0^ {5,10}.0^{19,23}]tricosa-1(21),5(10),6,8,17,19,22-heptaen-4-one]
71	COc1cc(C(=O)N2C[C@H](N)[C@@H]3CC[C@H]2C3)cc2nc(-c3cc4ccc5nc4n3CC(F)(F)CCCOC(C)(C)C(=O)N[C@@H]5C)n(C)c12 [Example 460, (11~{R})-17-[5-[(1~{S},4~{R},5~{R})-4-amino-2-azabicyclo[3.2.1]octane-2-carbonyl]-7-methoxy-1-methyl-benzimidazol-2-yl]-3,3-difluoro-8,8,11-trimethyl-7-oxa-1,10,19-triazatricyclo[10.5.2.0^{15,18}]nonadeca-12(19),13,15(18),16-tetraen-9-one]
94	COc1cc(C(=O)N2CC[C@@H](OC)[C@@H](N)C2)cc2nc(-c3cc4ccc5nc4n3CCCCC[C@@H]3C[C@H]3C(=O)NC53CC3)n(C)c12 [Example 787, (5~{R},7~{R})-14-[5-[(3~{S}, 4~{R})-3-amino-4-methoxy-piperidine-1-carbonyl]-7-methoxy-1-methyl-benzimidazol-2-yl]spiro[3,13,19-triazatetracyclo[11.5.2.0^ {5,7}.0^{16,20}]icosa-1(18),14,16,19-tetraene-2,1′-cyclopropane]-4-one]
67	C[C@H]1NC(=O)c2ncccc2CCCCCn2c(-c3nc4cc(C(=O)N[C@H]5CNCC[C@@H]5F)c(F)cc4n3C)cc3ccc1nc32 [Example 498, 6-fluoro-~{N}-[(3~{S}, 4~{S})-4-fluoro-3-piperidyl]-1-methyl-2-[(2~{R})-2-methyl-4-oxo-3,6,16,22-tetrazatetracyclo [14.5.2.0^{5,10}.0^ {19,23}]tricosa-1(22), 5,7,9,17,19(23),20-heptaen-17-yl]benzimidazole-5-carboxamide]
21	C[C@H]1NC(=O)[C@@H]2C[C@@]2(F)CCCCCn2c(-c3nc4cc(C(=O)N5C[C@H](N)[C@@H]6CC[C@H]5C6)cc(F)c4n3C3C[C@H]3F)cc3ccc1nc32 (stereo partly shown) [Example 952, (2~{R},5~{S},7~{S})-14-[5-[(1~{S},4~{R},5~{R})-4-amino-2-azabicyclo[3.2.1]octane-2-carbonyl]-7-fluoro-1-[(1~{R},2~{R})-2-fluorocyclopropyl]benzimidazol-2-yl]-7-fluoro-2-methyl-3,13,19-triazatetracyclo [11.5.2.0^{5,7}.0^{16,20}] icosa-1(19),14,16(20),17-tetraen-4-one]
